The species named for test [1] is Homo sapiens. Briefly: Selectivity ratio of Ki for human kappa opioid receptor to Ki for human mu opioid receptor.
Test [2] is filed under the species Homo sapiens. Nature of the test: Selectivity ratio of Ki for human delta opioid receptor to Ki for human mu opioid receptor.
Test [3] addresses Delta-type opioid receptor (Homo sapiens, UniProt P41143). Nature of the test: Displacement of [3H]DADLE from human delta opioid receptor expressed in CHO cells by liquid scintillation counting. Type of test: cell-based.
The target in test [4] is Kappa-type opioid receptor (Homo sapiens, UniProt P41145). Briefly: Displacement of [3H]U69,593 from human kappa opioid receptor expressed in CHO cells by liquid scintillation counting. Type of test: cell-based. (In general: Loss of bound radioactivity is the signal in a displacement assay; it reports binding, not function.)
For a further test, the target named is Mu-type opioid receptor (Homo sapiens, UniProt P35372). Nature of the test: Displacement of [3H]DAMGO from human mu opioid receptor expressed in CHO cells by liquid scintillation counting. In kind it is cell-based.

pKi: −log10 of the molar value.

Chain of Delta-type opioid receptor (P41143 whole entry): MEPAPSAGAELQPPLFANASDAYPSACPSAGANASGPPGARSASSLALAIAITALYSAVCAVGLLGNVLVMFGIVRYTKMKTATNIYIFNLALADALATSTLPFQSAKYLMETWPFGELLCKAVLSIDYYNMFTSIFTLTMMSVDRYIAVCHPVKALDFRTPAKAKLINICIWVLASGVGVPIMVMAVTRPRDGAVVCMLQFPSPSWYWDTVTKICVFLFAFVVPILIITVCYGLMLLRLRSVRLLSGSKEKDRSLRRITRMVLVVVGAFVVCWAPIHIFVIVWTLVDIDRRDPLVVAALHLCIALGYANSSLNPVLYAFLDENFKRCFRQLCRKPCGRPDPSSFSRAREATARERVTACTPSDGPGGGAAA
Chain of Kappa-type opioid receptor (P41145 whole entry): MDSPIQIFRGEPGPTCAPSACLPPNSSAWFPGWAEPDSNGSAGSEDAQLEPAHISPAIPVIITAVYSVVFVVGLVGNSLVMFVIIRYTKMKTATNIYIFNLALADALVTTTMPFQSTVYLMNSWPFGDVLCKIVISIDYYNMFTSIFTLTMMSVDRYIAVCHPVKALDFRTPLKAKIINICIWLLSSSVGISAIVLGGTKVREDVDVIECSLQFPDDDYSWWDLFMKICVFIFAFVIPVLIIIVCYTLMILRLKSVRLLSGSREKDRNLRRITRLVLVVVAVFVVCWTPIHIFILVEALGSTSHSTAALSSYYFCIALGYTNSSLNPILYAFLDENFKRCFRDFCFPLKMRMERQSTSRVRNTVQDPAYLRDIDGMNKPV
Chain of Mu-type opioid receptor (P35372 whole entry): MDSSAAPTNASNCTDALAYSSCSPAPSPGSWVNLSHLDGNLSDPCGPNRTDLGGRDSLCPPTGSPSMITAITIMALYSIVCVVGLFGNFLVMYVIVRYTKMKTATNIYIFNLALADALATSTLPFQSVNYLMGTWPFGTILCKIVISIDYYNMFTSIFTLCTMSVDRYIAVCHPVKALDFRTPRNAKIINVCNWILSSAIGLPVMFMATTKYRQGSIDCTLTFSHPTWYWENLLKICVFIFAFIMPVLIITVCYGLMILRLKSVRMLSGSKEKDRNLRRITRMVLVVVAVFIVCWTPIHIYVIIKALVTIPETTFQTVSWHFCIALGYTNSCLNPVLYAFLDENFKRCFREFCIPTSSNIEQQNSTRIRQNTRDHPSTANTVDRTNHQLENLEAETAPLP

Turning to `O=C(O[C@@H]1CC[C@@]2(O)[C@H]3Cc4ccc(O)c5c4[C@@]2(CCN3CC2CC2)[C@H]1O5)N(c1ccccc1)c1ccccc1`, the figures for the Ratio Ki in the test filed under Homo sapiens [1] and in the test filed under Homo sapiens [2] were 26.3 and 133, respectively. Further, the values for the pKi (in test [3]; in test [4]; on Mu-type opioid receptor) were 7.13, 7.83 and 9.25, respectively.

Regarding `CS(=O)(=O)O[C@@H]1CC[C@@]2(O)[C@H]3Cc4ccc(O)c5c4[C@@]2(CCN3CC2CC2)[C@H]1O5`, the Ratio Ki in the test listed under Homo sapiens [1] is 6.1; in the test listed under Homo sapiens [2] it was 83.8. For the same molecule, the pKi in test [3] was 7.03; in test [4] it was 8.17; at Mu-type opioid receptor it was 8.95.

Regarding `Cc1ccc(S(=O)(=O)O[C@@H]2CC[C@@]3(O)[C@H]4Cc5ccc(O)c6c5[C@@]3(CCN4CC3CC3)[C@H]2O6)cc1`, the results for the Ratio Ki in the test listed under Homo sapiens [1] and in the test listed under Homo sapiens [2] were 2.1 and 6.5, respectively. Further, the values for the pKi (in test [3]; in test [4]; on Mu-type opioid receptor) were 8.29, 8.78 and 9.10, respectively.

Take `CN(C)C(=O)O[C@@H]1CC[C@@]2(O)[C@H]3Cc4ccc(O)c5c4[C@@]2(CCN3CC2CC2)[C@H]1O5`: the Ratio Ki in the test listed under Homo sapiens [1] is 15.2; in the test filed under Homo sapiens [2], 180. Further, the pKi in test [3] is 6.48; in test [4] it was 7.55; on Mu-type opioid receptor, 8.73.

One may read the pKi as −log10 of the Ki, conventionally taken in molar units. The low end stands for a high Ki, the high end for a low Ki.

The values above are taken from ChEMBL document CHEMBL1153596, “Design, synthesis, and characterization of 6beta-naltrexol analogs, and their selectivity for in vitro opioid receptor subtypes” (Bioorg Med Chem Lett, 2009).
